Measurements published in patent US7297353B2, “Use of anemonin for treating aseptic inflammations” (priority 2000, dated 2007).
Like-named read-outs stand apart in the source and are kept apart here.

What was measured:
[1] = system: B-lymphocytes from the whole spleen of mice; assay: LPS-induced responsive proliferation of B-lymphocytes ([3H] thymidine); assay type: cell-based; conditions: for Proliferation of B-lymphoctes LPS stimulation Average of CPM values / Proliferation of B-lymphocytes LPS stimulation Average of CPM values: LPS at 10 μg/ml, 48 hours; for inhibition of LPS-induced responsive proliferation of B-lymphocytes: final concentration range from 1 μg/ml to 100 μg/ml
Experimental: 5.2.1. Mice were sacrificed by removing spondyle, spleen was cut off in a sterile condition and then ground to obtain single cell suspension. After erythrocytes were got rid of the remained cells were diluted to […] with RPMI-1640 culture solution containing 10% fetal bovine serum.
5.2.2. 200 μl solution in total volume (including 100 μl the cell suspension, 50 μl sample and 50 μl ConA or LPS) was dispensed on 96-well plate.
50 μl culture solution containing 10% fetal bovine serum, instead of 50 μl sample, was added as negative control, in which the total volume was also 200 μl.
5.2.3. The cell was cultured at 37° C. and under 5% CO2 in incubator for 48 hours, and [^3H] thymidine (1.9×10^4 Bq) was added to the plate at 25 μl/well 12 hours before the end of culture.
5.2.4. The culture was continued. The plates were then stored at −20° C. in refrigeratory after the culture. The thawed cells were collected to fiberglass membrane (Nitrocellose membrane) with cell collector when detecting. After the addition of Scintillation solution, the quantity of [^3H] thymidine incorporated into DNA of cells was detected by Beta counter (MicroBeta Trilux, PerkinElmer LifeSciences). The proliferation of lymphocytes was indicated by cpm value.
Effect of the medicament on LPS-induced responsive proliferation of B-lymphocytes was examined, said B-lymphocytes were from the whole spleen of mice. LPS at 10 μg/ml final concentration was used as the stimulator to induce responsive proliferation of B-lymphocytes from the whole spleen of ICR homogenous mice (cultured in vitro for 48 hours).

[2] = system: carrageenan-induced paw edema; assay: Acute hind paw edema of rats induced by carrageenan; assay type: in vivo
Experimental: The animals were injected subcutaneously with carrageenan (10 μl of 1% solution in saline) into the right paw. Anti-inflammatory properties of external anemonin were studied by applying with various liniment solution of anemonin (0.125, 0.5, 2 mg/ml, 0.5 ml) for 2 h immediately after administration of carrageenan. The rats of control group were treated with the same volume of solvent (25% ethanol). The paw volumes of rats were measured at 0, 2 h, 3 h, 4 h, 5 h, 6 h after injection of carrageenan. The paw edema was represented by subtracting the volume of the untreated same paw from that of the treated paw.

spleen cells = assay: Cytotoxicity effect of anemonin (MTT assay); assay type: cell-based, ICR mice; conditions: for OD value: 48 h
Experimental: The cell viability was determined by using 3-(4,5-dimethylthiazol-2-yl)-2,5-Diphenyl-tetrazolium bromide (MTT) assay. In brief, fresh spleen cells were obtained from ICR mice (male, 7-9 weeks old), 5×10^5 of spleen cells were cultured in 96-well flat plates. The medium was contained various concentrations of anemonin. After incubation for up to 48 h, MTT solution (5 mg/m in saline) was added to the 96 plates and cells were allowed to incubate for 6 h at 37° C. After the medium had been removed 100 μl, the cell and dye crystals were solubilized by adding 100 μl 10% sodium dodecyl sulfate (SDS), and then absorption was measured at 570 nm with a model 550-microplate reader (Bio-Rad).

IL-2 = assay: Cytokine production from splenocytes, ConA stimulation, IL-2 (ELISA); assay type: cell-based, murine; conditions: 24 h
Experimental: For splenocyte cytokine production assay, 5×10^6 cells per well were inoculated into a 24-well tissue culture plate with ConA (5 mg/L) or Sac (1:10000) stimulation. Different concentrations of Anemonin were added in a final volume of 2 ml. Cells were incubated at 37° C., 5% CO2 for 24 h and supernatants were harvested, IFN-γ, IL-10, IL12 (p40) and IL-2 in supernatants were measured by the sandwich enzyme-linked immunosorbent assay (ELISA) as specified by the manufacturer (BD Bioscience pharmingen, US). Concentrations of the cytokine productions were calculated based on standard curves obtained from serial dilutions of murine cytokines (r IFN-γ, rIL-10, rIL12, rIL-2). As shown in Tables C-3 and C-4, high-dose Anemonin (1-100 μg/ml) inhibited all kinds of cytokine release induced by ConA or Sac.

O=C1C=CC2(CCC23C=CC(=O)O3)O1 (stereo not shown) [Anemonin, anemonin]
Proliferation of B-lymphoctes LPS stimulation Average of CPM values ([1]; 0.001 μg/ml, Table B-6): 39272 CPM
Proliferation of B-lymphoctes LPS stimulation Average of CPM values ([1]; 0.01 μg/ml, Table B-6): 39551 CPM
Proliferation of B-lymphoctes LPS stimulation Average of CPM values ([1]; 0.1 μg/ml, Table B-6): 39615 CPM
Proliferation of B-lymphocytes LPS stimulation Average of CPM values ([1]; 1 μg/ml, Table B-5): 10137 CPM
Proliferation of B-lymphoctes LPS stimulation Average of CPM values ([1]; 1 μg/ml, Table B-6): 32154 CPM
Proliferation of B-lymphocytes LPS stimulation Average of CPM values ([1]; 10 μg/ml, Table B-5): 190 CPM
Proliferation of B-lymphoctes LPS stimulation Average of CPM values ([1]; 10 μg/ml, Table B-6): 40840 CPM
Proliferation of B-lymphocytes LPS stimulation Average of CPM values ([1]; 100 μg/ml, Table B-5): 164 CPM
Proliferation of B-lymphoctes LPS stimulation Average of CPM values ([1]; 100 μg/ml, Table B-6): 24523 CPM
inhibition at 0.001 µg/mL ([1]; Mus musculus, 0.001 μg/ml, LPS stimulation, Table B-6, read-out: General assess of activity Enhancement/Inhibition): -7%
inhibition at 0.01 µg/mL ([1]; Mus musculus, 0.01 μg/ml, LPS stimulation, Table B-6, read-out: General assess of activity Enhancement/Inhibition): -8%
inhibition at 0.1 µg/mL ([1]; Mus musculus, 0.1 μg/ml, LPS stimulation, Table B-6, read-out: General assess of activity Enhancement/Inhibition): -8%
inhibition at 1 µg/mL ([1]; Mus musculus, 1 μg/ml, LPS stimulation, Table B-5, read-out: General assess of activity Enhancement/Inhibition): 33%
inhibition at 1 µg/mL ([1]; Mus musculus, 1 μg/ml, LPS stimulation, Table B-6, read-out: General assess of activity Enhancement/Inhibition): 13%
inhibition at 10 µg/mL ([1]; Mus musculus, 10 μg/ml, LPS stimulation, Table B-5, read-out: General assess of activity Enhancement/Inhibition): 99%
inhibition at 10 µg/mL ([1]; Mus musculus, 10 μg/ml, LPS stimulation, Table B-6, read-out: General assess of activity Enhancement/Inhibition): -11%
inhibition at 100 µg/mL ([1]; Mus musculus, 100 μg/ml, LPS stimulation, Table B-5, read-out: General assess of activity Enhancement/Inhibition): 99%
inhibition at 100 µg/mL ([1]; Mus musculus, 100 μg/ml, LPS stimulation, Table B-6, read-out: General assess of activity Enhancement/Inhibition): 33%
inhibition of LPS-induced responsive proliferation of B-lymphocytes [1]: sharply inhibited
inhibition of LPS-induced responsive proliferation of B-lymphocytes ([1]; listed as anemonin): remarkably inhibited
Paw edema ([2]; 0.125 mg/ml liniment, 2 h): 0.24 ± 0.06 mL
Paw edema ([2]; 0.125 mg/ml liniment, 3 h): 0.20 ± 0.09 mL
Paw edema ([2]; 0.125 mg/ml liniment, 4 h): 0.33 ± 0.08 mL
Paw edema ([2]; 0.125 mg/ml liniment, 5 h): 0.36 ± 0.11 mL
Paw edema ([2]; 0.125 mg/ml liniment, 6 h): 0.39 ± 0.08 mL
Paw edema ([2]; 0.5 mg/ml liniment, 2 h): 0.24 ± 0.13 mL
Paw edema ([2]; 0.5 mg/ml liniment, 3 h): 0.21 ± 0.08 mL
Paw edema ([2]; 0.5 mg/ml liniment, 4 h): 0.25 ± 0.07 mL
Paw edema ([2]; 0.5 mg/ml liniment, 5 h): 0.35 ± 0.10 mL
Paw edema ([2]; 0.5 mg/ml liniment, 6 h): 0.40 ± 0.08 mL
Paw edema ([2]; 2 mg/ml liniment, 0.5 ml for 2 h, 2 h after carrageenan): 0.25 ± 0.08 mL
Paw edema ([2]; 2 mg/ml liniment, 3 h): 0.16 ± 0.08 mL
Paw edema ([2]; 2 mg/ml liniment, 4 h): 0.25 ± 0.07 mL
Paw edema ([2]; 2 mg/ml liniment, 5 h): 0.30 ± 0.06 mL
Paw edema ([2]; 2 mg/ml liniment, 6 h): 0.31 ± 0.10 mL
paw edema development ([2]; liniment 0.125, 0.5, 2 mg/ml, dose-dependent manner): significantly reduced
cytotoxicity (spleen cells; 0.001 ug/ml): No
OD value (spleen cells; 0.001 ug/ml, 570 nM): 0.196 ± 0.006
cytotoxicity (spleen cells; 0.01 ug/ml): No
OD value (spleen cells; 0.01 ug/ml): 0.193 ± 0.007
cytotoxicity (spleen cells; 0.1 ug/ml): No
OD value (spleen cells; 0.1 ug/ml): 0.200 ± 0.011
cytotoxicity (spleen cells; 1 ug/ml): Yes
OD value (spleen cells; 1 ug/ml): 0.160 ± 0.004
cytotoxicity (spleen cells; 10 ug/ml): Yes
OD value (spleen cells; 10 ug/ml): 0.135 ± 0.003
cytotoxicity (spleen cells; 100 ug/ml): Yes
OD value (spleen cells; 100 ug/ml): 0.118 ± 0.011
cytotoxic effects (spleen cells; 1-100 μg/ml): cytotoxic effects in a dose-dependent manner
IL-2 (IL-2; 0.001 μg/ml): 482 ± 7 pg/mL
IL-2 (IL-2; 0.01 μg/ml): 479 ± 5 pg/mL
IL-2 (IL-2; 0.1 μg/ml): 461 ± 2 pg/mL
IL-2 (IL-2; 1 μg/ml): 190 ± 2 pg/mL
IL-2 (IL-2; 10 μg/ml): 22 ± 1 pg/mL
IL-2 (IL-2; 100 μg/ml): 28 ± 1 pg/mL
